From ChEMBL document CHEMBL1212807, “Chemical reprogramming of Caenorhabditis elegans germ cell fate” (Nat Chem Biol, 2010)
Active and inactive are the calls of the source. No cut-off for these calls is given here.

Columns and labels:
Caenorhabditis elegans [1] = assay: Induction of oocyte production in Caenorhabditis elegans Bristol isolate N2 with puf-1; lip-1 double mutant
Caenorhabditis elegans [2] = assay: Induction of oocyte production in Caenorhabditis elegans Bristol isolate N2 with […]; lip-1 double mutant at 100 uM; format: functional
Caenorhabditis elegans [3] = assay: Induction of oocyte production in Caenorhabditis elegans Bristol isolate N2 with […]; lip-1 double mutant assessed as change in oocyte-specific cellular morphology at 50 uM; format: functional
Caenorhabditis elegans [4] = assay: Induction of oocyte production in Caenorhabditis elegans Bristol isolate N2 with […]; lip-1 double mutant assessed as expression of oocyte marker RME-2 50 uM; format: functional, organism-based
Caenorhabditis elegans [5] = assay: Decrease in activated MPK-1/ERK levels in Caenorhabditis elegans Bristol isolate N2 by Western blot method at 50 uM; format: functional, organism-based

N#CC(=C(/N)Sc1ccccc1N)/C(C#N)=C(\N)Sc1ccccc1N
EC50 (Caenorhabditis elegans [1]): 2000 nM

COc1cccc(-c2cc(=O)c3ccccc3o2)c1N
Activity (Caenorhabditis elegans [2]): 5.3%

O=C(NOC[C@H](O)CO)c1ccc(F)c(F)c1Nc1ccc(I)cc1F [MIRDAMETINIB]
Activity (Caenorhabditis elegans [3]): 91% | Activity (Caenorhabditis elegans [4]): Active | Activity (Caenorhabditis elegans [5]): Active
